Results: US20250268873A1, “COMBINATION OF DUAL ATM AND DNA-PK INHIBITORS AND IMMUNOTHERAPEUTIC AGENTS FOR USE IN CANCER THERAPY” (XRAD THERAPEUTICS, INC., priority 2021, published 2025)

Test system: DNA-PK and ATM kinases
Test: Immunoblot of radiation-induced phosphorylation in MCF7 cells
Format: cell-based, human
Conditions: 20, 100, 500, 1000 nM, 30 min pre-treatment, 10 Gy IR
Description: Antibodies recognizing phosphorylated/activated ATM (S1981, #ab81292) and DNA-PKcs (S2056, #ab18192) were purchased from Abcam Biotechnology (Cambridge, MA). Antibodies to ATM (#A1106) and DNA-PKcs (#ab1832) were from Sigma and Abcam, respectively. Phospho-KAP1 (S824, #A300-767A) and KAP1 (A700-014) antibodies were from Bethyl Labs (Montgomery, TX). Phospho-TBK1 (#5483), cGAS (#15102), and pSTING (S366, #19781S) antibodies were from Cell Signaling Technology (CST) (Danvers, MA). STING (PA5-23381) antibodies were from ThermoFisher Scientific (Waltham, MA), and actin (#A5316) antibodies were from Sigma. […]
Cells were pretreated with Compound 569 at 20, 100, 500, or 1000 nM or DMSO for 30 min and then irradiated with 0 or 10 Gy (XRAD 160, Precision X Ray) as shown in FIG. 1. […] One hour after IR, cells were lysed in RIPA buffer ([…], pH 8.0, 150 mM NaCl, 0.1% SDS, 0.5% sodium deoxycholate, 1% IGEPAL® CA-630 (Sigma, 18896) for 20 min at 4° C. in the presence of protease and phosphatase inhibitor cocktails (Roche, #04693159001 & #04906837001). Cell lysates were centrifuged at 13,200 g for 10 min at 4° C. and supernatants were analyzed for protein content using BCA assay (Pierce™ BCA Protein Assay Kit, cat #23227, ThermoFisher Waltham, MA 02451) and equal amounts of protein/lane were used for subsequent immunoblot analyses. Proteins were denatured by adding NuPAGE LSD Sample Buffer [4×] […]

## CC(C)NCCOc1ncc(-c2cc3c4c(cnc3cc2F)N(C)C(=O)C42CCC2)cc1NS(C)(=O)=O [Compound 569, N-(5-(7′-Fluoro-3′-methyl-2′-oxo-2′,3′-dihydrospiro[cyclobutane-1,1′-pyrrolo[2,3-c]quinolin]-8′-yl)-2-(2-(isopropylamino)ethoxy)pyridin-3-yl)methanesulfonamide]
  inhibition of radiation-induced phosphorylation of DNA-PKcs (Ser2056), ATM (Ser1981) and KAP1 (ser824): potent dose-dependent inhibition
